# Laboratory results from patent publication US12410160B2 (Gilead Sciences, Inc., priority 2021, dated 2025).
# pEC50, pIC50: −log10 of the molar value.
# How the values were obtained:
# human KHK-C = human KHK-C (Homo sapiens (Human), UniProt P50053); assay: KHK Biochemical Assay (IC50), ADP-Glo, KHK-C; settings: average of at least two separate assays
# Procedure, shortened: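 Luminescent ADP-Glo read-out of ADP made by His-tagged KHK (BL21 (DE3) expression, Ni-NTA). Enzyme and compound sat together 30 min before ATP/fructose addition, then reacted 4 h at RT in Hepes pH 7.4 buffer with KCl, MgCl2, Triton-X. Quench 1 h, detection 1 h.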
# [1] = target: KHK-C expressed in NRK-52E cells (Homo sapiens (Human), UniProt P50053); assay: KHK-C Cell-based Assay (EC50), NRK CTG, fructose-mediated ATP-depletion
# KHK-C expressed in NRK-52E cells, sequence (P50053 whole entry): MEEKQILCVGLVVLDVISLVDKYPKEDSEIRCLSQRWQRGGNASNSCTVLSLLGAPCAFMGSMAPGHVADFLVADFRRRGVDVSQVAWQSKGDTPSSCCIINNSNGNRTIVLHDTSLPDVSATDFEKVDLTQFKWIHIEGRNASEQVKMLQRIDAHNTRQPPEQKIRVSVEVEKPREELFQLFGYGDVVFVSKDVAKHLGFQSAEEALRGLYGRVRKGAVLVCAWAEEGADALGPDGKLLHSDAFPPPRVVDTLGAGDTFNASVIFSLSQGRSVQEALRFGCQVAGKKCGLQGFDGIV
# Experimental: Compounds were tested in a high-throughput 384-well assay format for their ability to attenuate fructose-mediated ATP-depletion in Normal Rat Kidney epithelial cells (NRK-52E) using the Cell-Titer Glo (CTG) assay, which measures cellular ATP levels based on luminescence signal by using the luciferase-luciferin system. Compounds were serially diluted (1:3) in DMSO.
# The plates were incubated at 37° C., 5% CO2 for one day. Cells were then transduced on day 2 with 200 MOI of Adenovirus (VQAd KHKC C-(K)-DYK ViraQuest Inc.) using the same medium and method as day-1 to induce KHK-C expression in the cells. Cells were incubated at 37° C., 5% CO2 for one day. On day-3, the medium was changed to DMEM medium (Corning, Catalog #10-014-CM) with 0.5% FBS and Penicillin-Streptomycin after washing the cells twice with sterile PBS on the BioTEK EL406 washer and dispenser. Test compounds were then diluted 200-fold into the assay plates using the BioMek FX and were incubated for 1 hour at 37° C., 5% CO2. 25 mM (final concentration) of fructose was then dispensed into the plates using the BioTEK EL406 dispenser and the plates were incubated at 37° C., 5% CO2 for 48 hours before addition of CTG reagent and measurement of luminescence signal.
# human KHK-C, sequence (P50053 whole entry): as above
SMILES,pIC50 (human KHK-C),pEC50 [1]
"C[C@H]1[C@H](O)CN1c1nc(-c2ccc(C3(N)COC3)nc2)c2c(n1)C(F)(F)CC2 [Example 506, (2S,3R)-1-(4-(6-(3-aminooxetan-3-yl)pyridin-3-yl)-7,7-difluoro-6,7-dihydro-5H-cyclopenta[d]pyrimidin-2-yl)-2-methylazetidin-3-ol]",< 5.30,< 5.30
"C[C@H]1[C@H](O)CN1c1nc(-c2ccc3c(c2)C(=O)N(C)CC3)c2c(n1)C(F)(F)CC2 [Example 600, 7-(7,7-difluoro-2-((2S,3R)-3-hydroxy-2-methylazetidin-1-yl)-6,7-dihydro-5H-cyclopenta[d]pyrimidin-4-yl)-2-methyl-3,4-dihydroisoquinolin-1(2H)-one]",7.87,6.90
"C[C@H]1[C@H](O)CN1c1nc2c(c(-c3ccc4c(c3)S(=O)(=O)CNC4=O)n1)CCC2 [Example 601, 7-(2-((2S,3R)-3-hydroxy-2-methylazetidin-1-yl)-6,7-dihydro-5H-cyclopenta[d]pyrimidin-4-yl)-2,3-dihydro-4H-benzo[e][1,3]thiazin-4-one 1,1-dioxide]",7.02,< 5.30
C[C@H]1CCN1c1nc2c(c(-c3ccc4c(c3)CN(S(=O)(=O)CCO)CC4)n1)CCC2 [Example 605],7.01,6.82
C[C@H]1[C@H](O)CN1c1nc2c(c(-c3cccc(CNS(=O)(=O)C4CC4)c3)n1)CCC2 [Example 610],7.09,6.21
"C[C@H]1[C@H](O)CN1c1nc(-c2ccc3c(c2)CN(S(C)(=O)=O)CC3)c2c(n1)C(F)(F)CC2 [Example 611, (2S,3R)-1-(7,7-difluoro-4-(2-(methylsulfonyl)-1,2,3,4-tetrahydroisoquinolin-7-yl)-6,7-dihydro-5H-cyclopenta[d]pyrimidin-2-yl)-2-methylazetidin-3-ol]",7.49,7.04
"CN1C(=O)N[C@]2(CCc3cc(-c4nc(N5CC[C@@H]5CF)nc5c4CCC5(F)F)ccc32)C1=O [Example 676, (5S)-5′-[7,7-difluoro-2-[(2R)-2-(fluoromethyl)azetidin-1-yl]-5,6-dihydroeyelopenta[d]pyrimidin-4-yl]-3-methyl-spiro[imidazolidine-5,1′-indane]-2,4-dione]",9.70,8.92
"CCN1C(=O)N[C@]2(CCc3cc(-c4nc(N5C[C@@H](O)[C@@H]5C)nc5c4CCC5(F)F)ccc32)C1=O [Example 685, (58)-5′-[7,7-difluoro-2-[(2S,3R)-3-hydroxy-2-methyl-azetidin-1-yl]-5,6-dihydrocyclopenta[d]pyrimidin-4-yl]-3-ethyl-spiro[imidazolidine-5,1′-indane]-2,4-dione]",9.70,8.68
"C[C@H]1CCN1c1nc2c(c(-c3cn(C4COC4)nn3)n1)CCC2 [Example 704, 2-[(2S)-2-methylazetidin-1-yl]-4-[1-(oxetan-3-yl)triazol-4-yl]-6,7-dihydro-5H-cyclopenta[d]pyrimidine]",6.60,5.88
"N#CC1CCN1c1nc(-c2ccc(C(N)=O)cc2)c2c(n1)C(F)(F)CC2 (stereo not drawn) [Example 706, 4-(2-(2-cyanoazetidin-1-yl)-7,7-difluoro-6,7-dihydro-5H-cyclopenta[d]pyrimidin-4-yl)benzamide]",7.17,6.44
"N#C[C@H]1CCN1c1nc(-c2ccc(C(N)=O)cc2)c2c(n1)C(F)(F)CC2 [Example 707, (R)-4-(2-(2-cyanoazetidin-1-yl)-7,7-difluoro-6,7-dihydro-5H-cyclopenta[d]pyrimidin-4-yl)benzamide]",7.36,6.48
"N#CC1CN(c2nc(-c3ccc(C(N)=O)cc3)c3c(n2)C(F)(F)CC3)C1 [Example 708, 4-(2-(3-cyanoazetidin-1-yl)-7,7-difluoro-6,7-dihydro-5H-cyclopenta[d]pyrimidin-4-yl)benzamide]",< 5.30,< 5.30
"CS(=O)(=O)c1cccc(-c2nc(N3CCC[C@H]3C#N)nc3c2CCC3)c1 [Example 712, (S)-1-(4-(3-(methylsulfonyl)phenyl)-6,7-dihydro-5H-cyclopenta[d]pyrimidin-2-yl)pyrrolidine-2-carbonitrile]",< 5.30,< 5.30
"CS(=O)(=O)c1cccc(-c2nc(N3CCC[C@@H]3C#N)nc3c2CCC3)c1 [Example 713, (R)-1-(4-(3-(methylsulfonyl)phenyl)-6,7-dihydro-5H-cyclopenta[d]pyrimidin-2-yl)pyrrolidine-2-carbonitrile]",5.63,5.31
"CC1(C#N)CCN1c1nc2c(c(-c3cccc(S(C)(=O)=O)c3)n1)CCC2 (stereo not drawn) [Example 714, 2-methyl-1-(4-(3-(methylsulfonyl)phenyl)-6,7-dihydro-5H-cyclopenta[d]pyrimidin-2-yl)azetidine-2-carbonitrile]",< 5.30,< 5.30
"C[C@H]1CCN1c1nc2c(c(-c3ccc4nc(N)oc4c3)n1)CCC2 [Example 728, (S)-6-(2-(2-methylazetidin-1-yl)-6,7-dihydro-5H-cyclopenta[d]pyrimidin-4-yl)benzo[d]oxazol-2-amine]",7.65,7.28
"NC(=O)c1ccc(-c2nc(N3CCC34COC4)nc3c2CCC3)cc1 [Example 730, 4-(2-(6-oxa-1-azaspiro[3.3]heptan-1-yl)-6,7-dihydro-5H-cyclopenta[d]pyrimidin-4-yl)benzamide]",5.62,5.30
"C[C@H]1CCN1c1nc2c(c(-c3ccc4[nH]c(N)nc4c3)n1)CCC2 [Example 731, (S)-5-(2-(2-methylazetidin-1-yl)-6,7-dihydro-5H-cyclopenta[d]pyrimidin-4-yl)-1H-benzo[d]imidazol-2-amine]",8.28,6.60
"C[C@H]1CCN1c1nc2c(c(-c3cnc(N)nc3)n1)CCC2 [Example 732, (S)-5-(2-(2-methylazetidin-1-yl)-6,7-dihydro-5H-cyclopenta[d]pyrimidin-4-yl)pyrimidin-2-amine]",7.06,6.44
"C[C@H]1CCN1c1nc2c(c(-c3ccc4sc(N)nc4c3)n1)CCC2 [Example 733, (S)-5-(2-(2-methylazetidin-1-yl)-6,7-dihydro-5H-cyclopenta[d]pyrimidin-4-yl)benzo[d]thiazol-2-amine]",7.30,6.91
"C[C@H]1CCN1c1nc2c(c(-c3ccc4nc(N)sc4c3)n1)CCC2 [Example 734, (S)-6-(2-(2-methylazetidin-1-yl)-6,7-dihydro-5H-cyclopenta[d]pyrimidin-4-yl)benzo[d]thiazol-2-amine]",7.14,7.04
"C[C@H]1CCN1c1nc2c(c(-c3ccc4oc(N)nc4c3)n1)CCC2 [Example 736, (S)-5-(2-(2-methylazetidin-1-yl)-6,7-dihydro-5H-cyclopenta[d]pyrimidin-4-yl)benzo[d]oxazol-2-amine]",7.68,7.46
"C[C@H]1[C@H](O)CN1c1nc(-c2ccc(C(=O)NCC#N)cc2)c2c(n1)C(F)(F)CC2 [Example 737, N-(cyanomethyl)-4-(7,7-difluoro-2-((2S,3R)-3-hydroxy-2-methylazetidin-1-yl)-6,7-dihydro-5H-cyclopenta[d]pyrimidin-4-yl)benzamide]",8.01,6.62
"C[C@H]1[C@H](O)CN1c1nc2c(c(-c3cc4c(c(S(N)(=O)=O)c3)OCC4)n1)CCC2 [Example 739, 5-(2-((2S,3R)-3-hydroxy-2-methylazetidin-1-yl)-6,7-dihydro-5H-cyclopenta[d]pyrimidin-4-yl)-2,3-dihydrobenzofuran-7-sulfonamide]",7.42,6.67
"C[C@@H](NS(C)(=O)=O)c1ccc(-c2nc(N3C[C@@H](O)[C@@H]3C)nc3c2CCC3(F)F)cc1 [Example 740, N-[(1R)-1-[4-[7,7-difluoro-2-[(2S,3R)-3-hydroxy-2-methyl-azetidin-1-yl]-5,6-dihydrocyclopenta[d]pyrimidin-4-yl]phenyl]ethyl]methanesulfonamide]",7.39,6.49
"C[C@@H](NS(C)(=O)=O)c1cccc(-c2nc(N3C[C@@H](O)[C@@H]3C)nc3c2CCC3(F)F)c1 [Example 741, N-[(1R)-1-[3-[7,7-difluoro-2-[(2S,3R)-3-hydroxy-2-methyl-azetidin-1-yl]-5,6-dihydrocyclopenta[d]pyrimidin-4-yl]phenyl]ethyl]methanesulfonamide]",7.60,6.65
"C[C@H]1CCN1c1nc(-c2cc3c(c(S(N)(=O)=O)c2)OCC3)c2c(n1)C(F)(F)CC2 [Example 742, 5-[7,7-difluoro-2-[(2S)-2-methylazetidin-1-yl]-5,6-dihydrocyclopenta[d]pyrimidin-4-yl]-2,3-dihydrobenzofuran-7-sulfonamide]",8.89,8.39
"C[C@H]1CCN1c1nc2c(c(-c3ccc(C4(NS(C)(=O)=O)CCC4)cc3)n1)CCC2 [Example 743, N-[1-[4-[2-[(2S)-2-methylazetidin-1-yl]-6,7-dihydro-5H-cyclopenta[d]pyrimidin-4-yl]phenyl]cyclobutyl]methanesulfonamide]",5.99,5.77
"C[C@H](NS(C)(=O)=O)c1ccc(-c2nc(N3C[C@@H](O)[C@@H]3C)nc3c2CCC3(F)F)cc1 [Example 744, N-[(1S)-1-[4-[7,7-difluoro-2-[(2S,3R)-3-hydroxy-2-methyl-azetidin-1-yl]-5,6-dihydrocyclopenta[d]pyrimidin-4-yl]phenyl]ethyl]methanesulfonamide]",7.76,6.85
"C[C@H](NS(C)(=O)=O)c1cccc(-c2nc(N3C[C@@H](O)[C@@H]3C)nc3c2CCC3(F)F)c1 [Example 745, N-[(1S)-1-[3-[7,7-difluoro-2-[(2S,3R)-3-hydroxy-2-methyl-azetidin-1-yl]-5,6-dihydrocyclopenta[d]pyrimidin-4-yl]phenyl]ethyl]methanesulfonamide]",7.60,6.79
